{"source": "patent US10787457B2", "about": "(priority 2015, dated 2020)", "details": "mouse hepatic microsome 0.25 mg/mL; 1 μM; 37° C. 30 minutes; NADPH-generating system", "data": [{"smiles": "Cc1ccc(-c2nn(C(C)(C)C)c3ncnc(N)c23)cc1", "note": "[Compound 4 of Comparative Examples, 1-(tert-butyl)-3-(p-tolyl)pyrazolo[3,4-d]pyrimidin-4-amine]", "values": [{"measurement": "percentage of the remaining tested compounds (remaining %)", "value": 0, "unit": "%"}]}]}
